Results taken from paper PMC9995618 (Journal of Genetic Engineering & Biotechnology, 2023).

Test system: T1, tick larvae glutathione S transferase (TLGST)
T1 construct: native enzyme purified from larvae (42 kDa; 28 and 14 kDa subunits)
Experiment: CDNB-GSH conjugation assay, Lineweaver-Burk and Ki plot
Assay type: biochemical, Hyalomma dromedarii

SMILES: O=C(O)c1cc[c]([Hg][Cl])cc1 [p-chloromercuribenzoic acid]
- Ki: 300 µM
